These results are taken from ChEMBL document CHEMBL1142754, “Lp-PLA2 inhibitory activities of fatty acid glycerols isolated from Saururus chinensis roots” (Bioorg Med Chem Lett, 2005).

The term IC50 denotes the concentration needed to halve the response being measured. A low value points to greater potency in that assay.

This assay can be described thus: Inhibitory concentration against lipoprotein-associated phospholipase A2 (Lp-PLA2) was determined in Pseudomonas fluorescens (DMS 115797).

The structures appear in SMILES notation.

Consider `CCCCC/C=C\C/C=C\CCCCCCCC(=O)OC[C@@H](O)CO` [GLYCERYL MONOLINOLEATE], for which the midpoint of inhibition, the IC50, lay at 4.5 µM. Regarding `CCCCC/C=C\C/C=C\CCCCCCCC(=O)OC[C@H](O)CO`, 52 µM corresponded to half-maximal inhibition (IC50).
